Measured values reported in publication PMC11881662 (Journal of Enzyme Inhibition and Medicinal Chemistry, 2025).
≈ marks a conversion by molar mass, not a printed value. Where “and” joins values, the source holds several entries; their conditions need not be identical. Identical values can stand only once.

Key:
[1] = tested on: plasmid pBR322; assay: Ethidium bromide assay, DNA-binding effects on plasmid pBR322; conditions: EtBr-DNA complex, compound 10 μM, 25 °C 30 min; no drug = 100% fluorescence
[2] = tested on: calf thymus DNA; assay: Ethidium bromide assay, DNA-binding effects on calf thymus DNA; conditions: EtBr-DNA complex, compound 10 μM, 25 °C 30 min
[3] = tested on: T4 coliphage DNA; assay: Ethidium bromide assay, DNA-binding effects on T4 coliphage DNA; conditions: EtBr-DNA complex, compound 10 μM, 25 °C 30 min
[4] = target: T1, recombinant human DHFR (Homo sapiens, UniProt P00374); assay: Dihydrofolate reductase; format: biochemical
T1 sequence (P00374 1-187): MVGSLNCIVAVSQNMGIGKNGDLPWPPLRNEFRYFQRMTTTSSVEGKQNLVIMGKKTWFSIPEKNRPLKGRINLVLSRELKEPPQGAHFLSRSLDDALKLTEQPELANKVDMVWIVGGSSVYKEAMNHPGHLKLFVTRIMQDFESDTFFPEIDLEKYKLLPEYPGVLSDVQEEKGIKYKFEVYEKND

[5] = tested on: MCF-7 breast cancer cell line; assay: In vitro anti-proliferative MTT assay; format: cell-based, human; conditions: for IC50: Homo sapiens, MCF7, 24 h, read-out: MCF-7 IC50; for Selectivity index (SI): IC50 against normal cells (HSF) divided by IC50 against cancer cells (MCF-7)
[6] = tested on: normal human skin fibroblasts (HSF); assay: Normal cytotoxicity evaluation, MTT; format: cell-based; conditions: Skin fibroblast, 24 h, read-out: Normal HSF IC50
[7] = tested on: MCF-7 cells; assay: Apoptosis induction, Annexin V-FITC/PI flow cytometry; format: cell-based, human; conditions: MCF-7, at IC50, 24 h
[8] = tested on: MCF-7 cells; assay: Wound healing assay; format: cell-based, human; conditions: MCF-7, at IC50 concentrations
[9] = tested on: poly(dA-dT)2; assay: Ethidium bromide assay, DNA-binding effects on poly; conditions: EtBr-DNA complex, compound 10 μM, 25 °C 30 min
[10] = tested on: poly(dG-dC)2; assay: as above; conditions: EtBr-DNA complex, compound 10 μM, 25 °C 30 min
[11] = tested on: plasmid pBR322; conditions: NT under the same conditions; cited from earlier work

Row | SMILES | Decrease in fluorescence (%) pBr322 [1] [%] | Decrease in fluorescence (%) Calf Thymus DNA [2] [%] | Decrease in fluorescence (%) T4 DNA [3] [%] | IC50 [4] [µM] | IC50 [5] [µg/mL] | Selectivity index (SI) [5] | IC50 [6] [µg/mL] | Percentage of necrosis [7] [%] | Percentage of total apoptosis [7] [%] | % Wound closure after 24 h treatment [8] [%] | Decrease in fluorescence (%) Poly (dA-dT)2 [9] [%] | Decrease in fluorescence (%) Poly (dG-dC)2 [10] | Decrease in fluorescence (%) pBr322 (degree of EtBr displacement) [11] [%]
1 | O=C(O)C(/C=C/c1ccc(Cl)cc1)=N\Nc1nc(-c2ccccc2)cs1 [Compound 5, (2Z,3E)-4-(4-Chlorophenyl)-2-(2–(4-phenylthiazol-2-yl)hydrazinylidene)but-3-enoic acid] | 63.44 | 63.15 | 28.05 | 0.08 ± 0.001 | 2.72 (≈ 7.09 µM) | 11.97 | 32.6 (≈ 84.8 µM) | 3.09 | 29.63 | 45.19 | 56.91 | 67.28% | –
2 | COc1ccc(-c2csc(N/N=C(/C=C/c3ccc(Cl)cc3)C(=O)O)n2)cc1 [Compound 7, (2Z,3E)-4-(4-Chlorophenyl)-2-(2-(4-(4-methoxyphenyl)thiazol-2-yl)hydrazinylidene)but-3-enoic acid] | 62.36 | 44.21 | 36.58 | 39.41 ± 0.03 | – | – | – | – | – | – | – | 62.38% | –
3 | O=C(O)C(/C=C/c1ccc(Cl)cc1)=N\Nc1nc(-c2ccc(F)cc2)cs1 [Compound 8, (2Z,3E)-4-(4-Chlorophenyl)-2-(2-(4-(4-fluorophenyl)thiazol-2-yl)hydrazinylidene)but-3-enoic acid] | 60.93 | 40.00 | 37.19 | 10.51 ± 0.05 | – | – | – | – | – | – | 52.83 | 62.99% | –
4 | O=C(O)C(/C=C/c1ccc(Cl)cc1)=N\Nc1nc(-c2ccc(Cl)cc2)cs1 [Compound 9, (2Z,3E)-4-(4-Chlorophenyl)-2-(2-(4-(4-chlorophenyl)thiazol-2-yl)hydrazinylidene)but-3-enoic acid] | 53.40 | 53.68 | 50.00 | 36.18 ± 0.01 | – | – | – | – | – | – | 71.19 | 49.23% | –
5 | O=C(O)C(/C=C/c1ccc(Cl)cc1)=N\Nc1nc(-c2ccc(Br)cc2)cs1 [Compound 10, (2Z,3E)-4-(4-Chlorophenyl)-2-(2-(4-(4-bromophenyl)thiazol-2-yl)hydrazinylidene)but-3-enoic acid] | 53.76 | 30.53 | 32.32 | 58.29 ± 0.02 | – | – | – | – | – | – | 39.34 | 50.15% | –
6 | O=C(O)C(/C=C/c1ccc(Cl)cc1)=N\Nc1nc(-c2ccc([N+](=O)[O-])cc2)cs1 [Compound 11, (2Z,3E)-4-(4-Chlorophenyl)-2-(2-(4-(4-nitrophenyl)thiazol-2-yl)hydrazinylidene)but-3-enoic acid] | 56.21 | 46.31 | 28.89 | 0.06 ± 0.03 | 12.5 (≈ 29.2 µM) | 6.74 | 84.4 (≈ 197 µM) | 4.81 | 23.99 | 52.72 | 53.39 | 56.57% | –
7 | O=C(O)C(/C=C/c1c(Cl)cccc1Cl)=N\Nc1nc(-c2ccccc2)cs1 [Compound 12, (2Z,3E)-4-(2,6-dichlorophenyl)-2-(2-(4-phenylthiazol-2-yl)hydrazinylidene)but-3-enoic acid] | 54.84 | 60.53 | 48.17 | 21.06 ± 0.02 | – | – | – | – | – | – | 54.80 | 59.37% | –
8 | Cc1ccc(-c2csc(N/N=C(/C=C/c3c(Cl)cccc3Cl)C(=O)O)n2)cc1 [Compound 13, (2Z,3E)-4-(2,6-dichlorophenyl)-2-(2-(4-(4-tolyl)thiazol-2-yl)hydrazinylidene)but-3-enoic acid] | 62.01 | 67.71 | 51.22 | 18.06 ± 0.03 | – | – | – | – | – | – | 55.74 | 75.62% | –
9 | COc1ccc(-c2csc(N/N=C(/C=C/c3c(Cl)cccc3Cl)C(=O)O)n2)cc1 [Compound 14, (2Z,3E)-4-(2,6-dichlorophenyl)-2-(2-(4-(4-methoxyphenyl)thiazol-2-yl)hydrazinylidene)but-3-enoic acid] | 51.61 | 58.95 | 40.85 | 31.02 ± 0.04 | – | – | – | – | – | – | 67.21 | 61.25% | –
10 | O=C(O)C(/C=C/c1c(Cl)cccc1Cl)=N\Nc1nc(-c2ccc(F)cc2)cs1 [Compound 15, (2Z,3E)-4-(2,6-dichlorophenyl)-2-(2-(4-(4-fluorophenyl)thiazol-2-yl)hydrazinylidene)but-3-enoic acid] | 70.97 | 72.10 | 39.02 | 62.31 ± 0.02 | – | – | – | – | – | – | 55.27 | 57.81% | –
11 | O=C(O)C(/C=C/c1c(Cl)cccc1Cl)=N\Nc1nc(-c2ccc(Cl)cc2)cs1 [Compound 16, (2Z,3E)-4-(2,6-dichlorophenyl)-2-(2-(4-(4-chlorophenyl)thiazol-2-yl)hydrazinylidene)but-3-enoic acid] | 64.16 | 50.53 | 52.44 | 53.18 ± 0.01 | – | – | – | – | – | – | 51.29 | 63.12% | –
12 | O=C(O)C(/C=C/c1c(Cl)cccc1Cl)=N\Nc1nc(-c2ccc(Br)cc2)cs1 [Compound 17, (2Z,3E)-4-(2,6-dichlorophenyl)-2-(2-(4-(4-bromophenyl)thiazol-2-yl)hydrazinylidene)but-3-enoic acid] | 61.65 | 54.21 | 35.36 | 60.28 ± 0.02 | – | – | – | – | – | – | 42.62 | 63.44% | –
13 | O=C(O)C(/C=C/c1c(Cl)cccc1Cl)=N\Nc1nc(-c2ccc([N+](=O)[O-])cc2)cs1 [Compound 18, (2Z,3E)-4-(2,6-dichlorophenyl)-2-(2-(4-(4-nitrophenyl)thiazol-2-yl)hydrazinylidene)but-3-enoic acid] | 55.56 | 76.84 | 45.12 | 63.18 ± 0.01 | – | – | – | – | – | – | 37.00 | 62.50% | –
14 | COc1cccc2c1C(=O)c1c(O)c3c(c(O)c1C2=O)C[C@@](O)(C(=O)CO)C[C@@H]3O[C@H]1C[C@H](N)[C@H](O)[C@H](C)O1 [DOX, doxorubicin, reference compound] | 100 | – | – | 8.31 ± 0.06 | – | – | – | – | – | – | – | – | –
15 | CN(Cc1cnc2nc(N)nc(N)c2n1)c1ccc(C(=O)N[C@@H](CCC(=O)O)C(=O)O)cc1 [MTX, Methotrexate, reference compound] | 100 | – | – | – | 56.9 (≈ 125 µM) | – | 126 (≈ 276 µM) | 6.50 | – | 45.46 | – | – | –
16 | Cn1cc(NC(=O)c2cc(NC(=O)CN=C(N)N)cn2C)cc1C(=O)NCCC(=N)N [NT, netropsin, reference compound] | – | 90.24 | 70.06 | – | – | – | – | – | – | – | 62.02 | 85% and 85.13% | 74
17 | COc1cc(Cc2cnc(N)nc2N)cc(OC)c1OC [TMP, trimethoprim, reference compound] | 100 | – | – | – | – | – | – | – | – | – | – | – | –
